Entries after “also recorded” stand apart in the source; their conditions may differ.
Assays:
[1] = system: NCI-H522 (NSC lung cancer); experiment: NCI 60-cell one-dose antiproliferative screen; assay type: cell-based, human; details: one dose 10 μM
c-Met kinase = c-Met kinase (Homo sapiens, UniProt P08581); experiment: c-Met kinase inhibition assay; assay type: biochemical
[2] = system: MDA-MB-231/ATCC (breast cancer); experiment: NCI 60-cell one-dose antiproliferative screen; assay type: cell-based, human; details: one dose 10 μM
HOP-92 (NSC lung cancer) = experiment: NCI 60-cell one-dose antiproliferative screen; assay type: cell-based, human; details: one dose 10 μM
HCT-116 (colon cancer) = experiment: NCI 60-cell one-dose antiproliferative screen; assay type: cell-based, human; details: one dose 10 μM
[3] = system: 60 human tumor cell lines; experiment: NCI 60-cell one-dose antiproliferative screen, whole panel; assay type: cell-based; details: Homo sapiens, 60 cell, read-out: Mean inhibition (mean GI%)
SW-620 (colon cancer) = experiment: NCI 60-cell one-dose antiproliferative screen; assay type: cell-based, human; details: one dose 10 μM
EKVX (NSC lung cancer) = experiment: NCI 60-cell one-dose antiproliferative screen; assay type: cell-based, human; details: one dose 10 μM
U251 (CNS cancer) = experiment: NCI 60-cell one-dose antiproliferative screen; assay type: cell-based, human; details: one dose 10 μM
UACC-62 (melanoma) = experiment: NCI 60-cell one-dose antiproliferative screen; assay type: cell-based, human; details: one dose 10 μM
IGROV1 (ovarian cancer) = experiment: NCI 60-cell one-dose antiproliferative screen; assay type: cell-based, human; details: one dose 10 μM
HCC-2998 (colon cancer) = experiment: NCI 60-cell one-dose antiproliferative screen; assay type: cell-based, human; details: one dose 10 μM
ACHN (renal cancer) = experiment: NCI 60-cell one-dose antiproliferative screen; assay type: cell-based, human; details: one dose 10 μM
SF-295 (CNS cancer) = experiment: NCI 60-cell one-dose antiproliferative screen; assay type: cell-based, human; details: one dose 10 μM
UACC-257 (melanoma) = experiment: NCI 60-cell one-dose antiproliferative screen; assay type: cell-based, human; details: one dose 10 μM
[4] = system: NCI-H226 (NSC lung cancer); experiment: NCI 60-cell one-dose antiproliferative screen; assay type: cell-based, human; details: one dose 10 μM
[5] = system: NCI-H23 (NSC lung cancer); experiment: NCI 60-cell one-dose antiproliferative screen; assay type: cell-based, human; details: one dose 10 μM
KM12 (colon cancer) = experiment: NCI 60-cell one-dose antiproliferative screen; assay type: cell-based, human; details: one dose 10 μM
MCF7 cells [6] = experiment: Cell cycle analysis by flow cytometry; assay type: cell-based, human
MCF7 cells [7] = experiment: Annexin V/PI dual staining apoptosis assay; assay type: cell-based, human; details: MCF7, 24 h, 4g at IC50 (0.56 μM)
[8] = system: MDA-MB-468 (breast cancer); experiment: NCI 60-cell one-dose antiproliferative screen; assay type: cell-based, human; details: one dose 10 μM
SNB-75 (CNS cancer) = experiment: NCI 60-cell one-dose antiproliferative screen; assay type: cell-based, human; details: one dose 10 μM
SF-539 (CNS cancer) = experiment: NCI 60-cell one-dose antiproliferative screen; assay type: cell-based, human; details: one dose 10 μM
[9] = system: NCI/ADR-RES (ovarian cancer); experiment: NCI 60-cell one-dose antiproliferative screen; assay type: cell-based, human; details: one dose 10 μM
SN12C (renal cancer) = experiment: NCI 60-cell one-dose antiproliferative screen; assay type: cell-based, human; details: one dose 10 μM
MALME-3M (melanoma) = experiment: NCI 60-cell one-dose antiproliferative screen; assay type: cell-based, human; details: one dose 10 μM
SF-268 (CNS cancer) = experiment: NCI 60-cell one-dose antiproliferative screen; assay type: cell-based, human; details: one dose 10 μM
786-0 (renal cancer) = experiment: NCI 60-cell one-dose antiproliferative screen; assay type: cell-based, human; details: one dose 10 μM
CAKI-1 (renal cancer) = experiment: NCI 60-cell one-dose antiproliferative screen; assay type: cell-based, human; details: one dose 10 μM
[10] = system: A549/ATCC (NSC lung cancer); experiment: NCI 60-cell one-dose antiproliferative screen; assay type: cell-based, human; details: one dose 10 μM
RXF 393 (renal cancer) = experiment: NCI 60-cell one-dose antiproliferative screen; assay type: cell-based, human; details: one dose 10 μM
CCRF-CEM (leukemia) = experiment: NCI 60-cell one-dose antiproliferative screen; assay type: cell-based, human; details: one dose 10 μM
HS 578T (breast cancer) = experiment: NCI 60-cell one-dose antiproliferative screen; assay type: cell-based, human; details: one dose 10 μM
SK-MEL-28 (melanoma) = experiment: NCI 60-cell one-dose antiproliferative screen; assay type: cell-based, human; details: one dose 10 μM
MCF7 (breast cancer) = experiment: NCI 60-cell one-dose antiproliferative screen; assay type: cell-based, human; details: one dose 10 μM
TK-10 (renal cancer) = experiment: NCI 60-cell one-dose antiproliferative screen; assay type: cell-based, human; details: one dose 10 μM
M14 (melanoma) = experiment: NCI 60-cell one-dose antiproliferative screen; assay type: cell-based, human; details: one dose 10 μM
[11] = MTT cytotoxicity assay, MCF10a; assay type: cell-based; details: human, MCF10a normal mammary epithelial cells
OVCAR-4 (ovarian cancer) = experiment: NCI 60-cell one-dose antiproliferative screen; assay type: cell-based, human; details: one dose 10 μM
OVCAR-5 (ovarian cancer) = experiment: NCI 60-cell one-dose antiproliferative screen; assay type: cell-based, human; details: one dose 10 μM
OVCAR-3 (ovarian cancer) = experiment: NCI 60-cell one-dose antiproliferative screen; assay type: cell-based, human; details: one dose 10 μM
COLO-205 (colon cancer) = experiment: NCI 60-cell one-dose antiproliferative screen; assay type: cell-based, human; details: one dose 10 μM
MDA-MB-435 (melanoma) = experiment: NCI 60-cell one-dose antiproliferative screen; assay type: cell-based, human; details: one dose 10 μM
[12] = system: NCI-H322M (NSC lung cancer); experiment: NCI 60-cell one-dose antiproliferative screen; assay type: cell-based, human; details: one dose 10 μM
[13] = system: NCI-H460 (NSC lung cancer); experiment: NCI 60-cell one-dose antiproliferative screen; assay type: cell-based, human; details: one dose 10 μM
[14] = system: breast cancer cell line MCF7; experiment: MTT cytotoxicity assay, MCF7; assay type: cell-based, human
[15] = MCF7, 4g at IC50 (0.56 μM), 24 h
[16] = MCF7, 4g at IC50 (0.56 μM), relative to DMSO control

c-Met kinase, sequence (P08581 25-1390): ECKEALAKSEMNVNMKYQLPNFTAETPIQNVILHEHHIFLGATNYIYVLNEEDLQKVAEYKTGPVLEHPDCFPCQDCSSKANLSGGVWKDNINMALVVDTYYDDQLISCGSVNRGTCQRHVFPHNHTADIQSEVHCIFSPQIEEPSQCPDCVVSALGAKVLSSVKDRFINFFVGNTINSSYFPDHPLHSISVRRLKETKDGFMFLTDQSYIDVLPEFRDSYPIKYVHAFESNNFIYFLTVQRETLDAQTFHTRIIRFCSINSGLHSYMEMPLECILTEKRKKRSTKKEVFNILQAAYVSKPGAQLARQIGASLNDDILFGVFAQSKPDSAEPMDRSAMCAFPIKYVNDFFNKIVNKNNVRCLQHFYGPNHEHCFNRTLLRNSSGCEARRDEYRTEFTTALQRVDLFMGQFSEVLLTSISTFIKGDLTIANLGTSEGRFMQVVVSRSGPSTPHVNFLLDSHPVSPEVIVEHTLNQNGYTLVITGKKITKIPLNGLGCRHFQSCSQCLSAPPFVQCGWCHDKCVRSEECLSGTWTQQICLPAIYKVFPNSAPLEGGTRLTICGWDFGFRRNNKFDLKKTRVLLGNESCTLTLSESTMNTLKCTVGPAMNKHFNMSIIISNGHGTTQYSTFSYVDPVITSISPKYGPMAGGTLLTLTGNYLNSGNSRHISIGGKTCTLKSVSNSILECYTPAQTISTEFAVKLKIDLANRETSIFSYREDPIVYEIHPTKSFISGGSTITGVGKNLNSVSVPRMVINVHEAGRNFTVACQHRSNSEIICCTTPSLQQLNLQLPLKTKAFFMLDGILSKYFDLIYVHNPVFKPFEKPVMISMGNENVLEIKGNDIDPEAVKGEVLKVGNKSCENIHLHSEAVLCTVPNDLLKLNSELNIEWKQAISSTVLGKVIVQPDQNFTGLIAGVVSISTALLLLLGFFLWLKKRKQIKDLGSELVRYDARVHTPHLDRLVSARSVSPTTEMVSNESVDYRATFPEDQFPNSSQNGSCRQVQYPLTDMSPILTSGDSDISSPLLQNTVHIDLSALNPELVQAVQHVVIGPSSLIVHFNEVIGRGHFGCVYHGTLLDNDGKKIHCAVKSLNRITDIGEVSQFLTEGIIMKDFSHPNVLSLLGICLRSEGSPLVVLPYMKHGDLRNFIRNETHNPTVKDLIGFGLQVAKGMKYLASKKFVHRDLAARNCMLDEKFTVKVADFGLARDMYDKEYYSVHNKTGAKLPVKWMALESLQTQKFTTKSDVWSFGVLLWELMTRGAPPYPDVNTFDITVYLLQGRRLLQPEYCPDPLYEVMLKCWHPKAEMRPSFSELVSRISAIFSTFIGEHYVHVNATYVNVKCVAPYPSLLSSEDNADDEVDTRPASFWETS

IC50 (c-Met kinase): 163 ± 10 nM
Compound: COc1ccc(-c2nnc3ccc(NN=Cc4ccc(O)cc4)nn23)cc1 [Compound 4g, 4-((2-(3-(4-Methoxyphenyl)-[1,2,4]triazolo[4,3-b]pyridazin-6-yl)hydrazono)methyl)phenol]
GI% [1]: 53.35%
GI% [2]: 39.44%
GI% (HOP-92 (NSC lung cancer)): 68.67%
GI% (HCT-116 (colon cancer)): 72.71%
inhibition at 10 µM [3]: 55.8%
GI% (SW-620 (colon cancer)): 32.85%
GI% (EKVX (NSC lung cancer)): 62.20%
GI% (U251 (CNS cancer)): 32.41%
GI% (UACC-62 (melanoma)): 41.19%
GI% (IGROV1 (ovarian cancer)): 60.66%
GI% (HCC-2998 (colon cancer)): 85.07%
GI% (ACHN (renal cancer)): 56.52%
GI% (SF-295 (CNS cancer)): 56.41%
GI% (UACC-257 (melanoma)): 17.70%
GI% [4]: 22.48%
GI% [5]: 67.47%
GI% (KM12 (colon cancer)): 71.51%
%G0-G1 (MCF7 cells [6]; [15]): 52.94%
%G2/M (MCF7 cells [6]; [15]): 4.13%
drop in the cell population at G0/G1 phase (MCF7 cells [6]; [16]): 10.48%
drop in the cell population at G2/M phase (MCF7 cells [6]; [16]): 46.84%
increase in the proportion of cells in the S phase (MCF7 cells [6]; MCF7, 4g at IC50 (0.56 μM), versus control (DMSO)): 1.29 fold
cell cycle arrest phase (MCF7 cells [6]; MCF7 cells): arrest in the S stage of the cell cycle; also recorded: arrest in the proliferation of MCF7 cells in the S phase; also recorded: ceased the proliferation of MCF-7 cancer cells in the S phase
Apoptosis Early (MCF7 cells [7]): 25.16%
Apoptosis Late (MCF7 cells [7]): 18.13%
Necrosis (MCF7 cells [7]): 5.27%
increase in the percentage of total apoptosis (MCF7 cells [7]; compared to the control): 29.61 fold
GI% [8]: 51.76%
GI% (SNB-75 (CNS cancer)): 46.38%
GI% (SF-539 (CNS cancer)): 63.61%
GI% [9]: 73.98%
GI% (SN12C (renal cancer)): 57.71%
GI% (MALME-3M (melanoma)): 35.83%
GI% (SF-268 (CNS cancer)): 64.19%
GI% (786-0 (renal cancer)): 77.10%
GI% (CAKI-1 (renal cancer)): 78.54%
GI% [10]: 41.49%
GI% (RXF 393 (renal cancer)): 57.34%
GI% (CCRF-CEM (leukemia)): 85.88%
GI% (HS 578T (breast cancer)): 53.18%
GI% (SK-MEL-28 (melanoma)): 30.86%
GI% (MCF7 (breast cancer)): 86.77%
GI% (TK-10 (renal cancer)): 61.05%
GI% (M14 (melanoma)): 43.64%
IC50 at 72 h [11]: 10700 ± 560 nM
GI% (OVCAR-4 (ovarian cancer)): 52.11%
GI% (OVCAR-5 (ovarian cancer)): — (— GI% is below 15%)
GI% (OVCAR-3 (ovarian cancer)): 62.40%
GI% (COLO-205 (colon cancer)): 43.51%
GI% (MDA-MB-435 (melanoma)): 54.20%
GI% [12]: 38.06%
GI% [13]: 55.73%
IC50 ([14]; Homo sapiens, MCF7, 72 h, read-out: Cytotoxicity IC50 MCF7): 560 ± 30 nM
Selectivity index ([14]; IC50 on normal cells (MCF10a) / IC50 on cancer cells (MCF7)): 19.11
